Data published in patent US20120076781A1, “METHODS OF TREATING CANCERS WITH HER3 ANTISENSE OLIGONUCLEOTIDES” (ENZON PHARMACEUTICALS, INC., priority 2009, published 2012).
Marks after values point to notes of the source that are not given here. In the oligonucleotide strings, read from the 5' end, every base follows the letter of its sugar. An asterisk marks phosphorothioate; unmarked linkages are phosphodiester. Other units and linkages are bracketed, terminal groups are in braces. A string of capitals states the bases alone. l = locked nucleic acid (LNA); [5mC] = 5-methylcytosine; d = 2'-deoxy (DNA)

Columns and labels:
[1] = system: HCC827R gefitinib resistant cells; test: Cell proliferation of HCC827R cells under gefitinib (MTT assay); type: cell-based, human; conditions: highest concentration tested 10 μM
Procedure: HCC827 lung adenocarcinoma cells (ATCC CRL-2868) were maintained at 37° C. in a humidified atmosphere of 5% CO2 and 95% air in RPMI medium supplemented with 10% fetal bovine serum. To generate gefitinib resistance, cells were treated with increasing amounts of gefitinib (up to 500 nM) for a period of 3 months.

human HER3 mRNA [2] = test: Down-regulation of HER3 mRNA in transfected 15PC3 cells, real-time PCR; type: cell-based; conditions: 25 nM
Procedure: (§1) 15PC3: The human prostate cancer cell line 15PC3 was cultured in DMEM (Sigma)+10% fetal bovine serum (FBS)+2 mM Glutamax I+gentamicin (25 μg/ml).
(§2) The cells were treated with oligonucleotides using the cationic liposome formulation LipofectAMINE 2000 (Gibco) as transfection vehicle. Cells were seeded in 6-well cell culture plates (NUNC) and treated when 80-90% confluent. Oligomer concentrations ranged from 1 nM to 25 nM final concentration. Formulation of oligomer-lipid complexes was carried out essentially as described by the manufacturer using serum-free OptiMEM (Gibco) and a final lipid concentration of 5 μg/mL LipofectAMINE 2000. Cells were incubated at 37° C. for 4 hours and treatment was stopped by removal of oligomer-containing culture medium. Cells were washed and serum-containing medium was added. After oligomer treatment, cells were allowed to recover for 20 hours before they were harvested for RNA analysis.
(§3) Total RNA was extracted from cells transfected as described above and using the Qiagen RNeasy kit (Qiagen cat. no. 74104) according to the manufacturer's instructions. First strand synthesis was performed using Reverse Transcriptase reagents from Ambion according to the manufacturer's instructions.
(§4) For each sample 0.5 μg total RNA was adjusted to (10.8 μl) with RNase free H2O and mixed with 2 μl random decamers (50 μM) and 4 μl dNTP mix (2.5 mM each dNTP) and heated to 70° C. for 3 min after which the samples were rapidly cooled on ice. After cooling the samples on ice, 2 μl 10× Buffer RT, 1 μl MMLV Reverse Transcriptase (100 U/μl) and 0.25 μl RNase inhibitor (10 U/μl) was added to each sample, followed by incubation at 42° C. for 60 min, heat inactivation of the enzyme at 95° C. for 10 min, and then cooling the sample to 4° C.
(§5) The sample content of human HER3, EGFR and HER2 mRNA was quantified using the human HER3, EGFR and HER2 ABI Prism Pre-Developed TaqMan Assay Reagents (Applied Biosystems cat. no. Hs00951444_ml (HER3), Hs00193306_ml (EGFR) and Hs00170433_ml (HER2) according to the manufacturer's instructions.
(§6) Glyceraldehyde-3-phosphate dehydrogenase (GAPDH) mRNA quantity was used as an endogenous control for normalizing any variance in sample preparation. The sample content of human GAPDH mRNA was quantified using the human GAPDH ABI Prism Pre-Developed TaqMan Assay Reagent (Applied Biosystems cat. no. 4310884E) according to the manufacturer's instructions.
(§7) The cDNA from the first strand synthesis performed as described in Example 5 was diluted 2-20 times, and analyzed by real time quantitative PCR using Taqman 7500 FAST or 7900 FAST from Applied Biosystems. The primers and probe were mixed with 2× Taqman Fast Universal PCR master mix (2×) (Applied Biosystems Cat. #4364103) and added to 4 μl cDNA to a final volume of 10 μl. Each sample was analysed in duplicate. Assaying 2-fold dilutions of a cDNA that had been prepared on material purified from a cell line expressing the RNA of interest generated standard curves for the assays. Sterile H2O was used instead of cDNA for the no-template control. PCR program: 95° C. for 30 seconds, followed by 40 cycles of 95° C., 3 seconds, 60° C., 20-30 seconds. Relative quantities of target mRNA sequence were determined from the calculated Threshold cycle using the Applied Biosystems Fast System SDS Software Version 1.3.1.21. or SDS Software Version 2.3.
(§8) Oligonucleotides presented in Table 4 were evaluated for their potential to down-regulate HER3, EGFR and HER2 mRNA at concentrations of 1, 5 and 25 nM in 15PC3 cells (or HUH-7 as indicated by *) (see FIGS. 2, 3, 4 and 5). SEQ ID NOs: 235 and 236 were used as scrambled controls.
(§9) The data in Table 4 are presented as percentage down-regulation of mRNA relative to mock transfected cells at 25 nM. Lower-case letters represent DNA monomers, bold, upper-case letters represent β-D-oxy-LNA monomers. All cytosines in LNA monomers are 5-methylcytosines. Subscript “s” represents a phosphorothioate linkage.

human EGFR mRNA = test: Down-regulation of EGFR mRNA in transfected 15PC3 cells, real-time PCR; type: cell-based; conditions: 25 nM
Procedure: as §1, §2, §3, §4, §5, §6, §7, §8, §9

human HER2 mRNA = test: Down-regulation of HER2 mRNA in transfected 15PC3 cells, real-time PCR; type: cell-based; conditions: 25 nM
Procedure: as §1, §2, §3, §4, §5, §6, §7, §8, §9

Mouse HER3 mRNA = test: HER3 mRNA knockdown in liver of nude mice bearing 15PC3 xenografts, qd x 5 (qRT-PCR); type: in vivo; conditions: i.v.
Procedure: (§10) To evaluate the knockdown efficacy of the HER3 oligomeric compounds in vivo, the female nude mice bearing 15PC3 xenografts developed by subcutaneous injection of 5×10^6 cells/mouse into the right axillary flank, were injected intravenously with the oligomers at various doses and injection schedules (i.e. single dose, qd, q3d, q4d). Scrambled oligomer SEQ ID NO: 236 served as a negative control. 24 hours after the last injection, the mice were euthanized and liver and tumor tissues were collected in RNAlater solution (Ambion). Total RNA was purified from the tissues and the levels of HER3 mRNA were determined by quantitative reverse transcription-real time PCR (qRT-PCR) using the QuantiTect Probe RT-PCR kit (Cat#: 204443; Qiagen). GAPDH mRNA served as an internal control.
(§11) 200 ng of total RNA was used in the PCR reaction. The data analyses were performed by using the ABI-7500 PCR Fast System included software.
(§12) Data in Table 5 are presented as % HER3 mRNA levels relative to saline treated controls in liver and tumor samples after i.v. dosing of animals on 5 consecutive days with oligonucleotides in the doses indicated.

human HER3 mRNA [3] = test: HER3 mRNA knockdown in 15PC3 xenograft tumor in nude mice, qd x 5 (qRT-PCR); type: in vivo; conditions: 32.4 mg/kg, i.v., relative to saline controls
Procedure: as §10, §11, §12

HER3 mRNA [4] = test: HER3 mRNA knockdown in 15PC3 xenograft tumor, different dosing cycle; type: in vivo, human; conditions: 32.4 x 4 mg/kg i.v., every third day
Procedure: as §10
(§13) The knockdown efficacy of oligomers was evaluated in vivo in nude mice bearing xenograft tumors derived from 15PC3 cells or A549 cells (NSCLC) or N87 cells (gastric carcinoma) using a similar protocol to the one described above in Example 11. Oligomers were administered by injection every third day in 2-4 doses. Tissues were harvested 3 or 4 days after the last injection.
(§14) Data in Tables 6 and 7 are presented as % HER3 mRNA or HIF-1 alpha mRNA relative to saline treated controls in liver and tumor samples after i.v. dosing of animals with the indicated oligomers.

HIF-1 alpha mRNA = HIF-1 alpha mRNA in 15PC3 xenograft tumor, different dosing cycle; type: in vivo, human; conditions: 32.4 x 4 mg/kg i.v., every third day
Procedure: as §10, §13, §14

HER3 mRNA [5] = test: HER3 mRNA knockdown in liver of xenograft-bearing nude mice, different dosing cycle; type: in vivo, mouse
Procedure: as §10
as §13, with “Oligomers were administered by injection every third day in 2-4 doses.” left out
as §14

HER3 mRNA [6] = test: HER3 mRNA knockdown in N87 (gastric carcinoma) xenograft tumor; type: in vivo, human; conditions: 25 mg/kg, q3d x 5, i.v.
Procedure: as §10
as §13, with “Oligomers were administered by injection every third day in 2-4 doses.” left out
as §14

human HER3 mRNA [7] = test: Down-regulation of HER3 mRNA in transfected HUH-7 cells, real-time PCR; type: cell-based; conditions: 25 nM, HUH-7 cells (indicated by *)
Procedure: HUH7: The human hepatocarcinoma cell line was cultured in DMEM (Sigma)+10% fetal bovine serum (FBS)+2 mM Glutamax I+gentamicin (25 μg/ml)+1× Non Essential Amino Acids.
The cells were treated with oligonucleotides using the cationic liposome formulation LipofectAMINE 2000 (Gibco) as transfection vehicle. Cells were seeded in 6-well cell culture plates (NUNC) and treated when 80-90% confluent. Oligomer concentrations ranged from 1 nM to 25 nM final concentration. Formulation of oligomer-lipid complexes was carried out essentially as described by the manufacturer using serum-free OptiMEM (Gibco) and a final lipid concentration of 5 μg/mL LipofectAMINE 2000. […]
as §5
as §6, with “instructions. […]” for “instructions.”

With `COc1cc2ncnc(Nc3ccc(F)c(Cl)c3)c2cc1OCCCN1CCOCC1` [gefitinib] the “cell proliferation of HCC827R cells under gefitinib” value [1] was “resistant to gefitinib even at the highest concentration tested”.
In the case of “ASGSAScSaStScSaScStScStSgSGSTSG (antisense lA*lG*lA*dC*dA*dT*dC*dA*dC*dT*dC*dT*dG*lG*lT*lG) [SEQ ID NO: 172, β-D-oxy-LNA/DNA phosphorothioate gapmer antisense oligonucleotide targeting HER3]”, the “HER3: percentage down-regulation of mRNA relative to mock transfected cells” value (human HER3 mRNA [2]) is reported as 84.2%, the “EGFR: percentage down-regulation of mRNA relative to mock transfected cells” value (human EGFR mRNA) is reported as 86.2% and the “HER2: percentage down-regulation of mRNA relative to mock transfected cells” value (human HER2 mRNA) is reported as 61%. The “HER3 mRNA Liver” value (Mouse HER3 mRNA; 9.7 mg/kg) was 12.2 ± 5.9 % of Sal ctrl, the “HER3 mRNA Liver” value (Mouse HER3 mRNA; 32.4 mg/kg) was 7.4 ± 5.2 % of Sal ctrl and the “HER3 mRNA Tumor” value (human HER3 mRNA [3]) was 78.1 ± 15.3%. The “Tumor HER3 mRNA relative to saline treated controls” value (HER3 mRNA [4]) was 107.3 ± 17%, the “Tumor Hif1A mRNA relative to saline treated controls” value (HIF-1 alpha mRNA) was 100.3 ± 7.5% and the “Liver HER3 mRNA relative to saline treated controls” value (HER3 mRNA [5]; 15PC3 xenograft mice, 32.4 x 4 mg/kg i.v., every third day) was 44.3 ± 10.6%.
In the case of “TSASGScScStStStSgSaScScStSCSTSC (antisense lT*lA*lG*dC*dC*dT*dT*dT*dG*dA*dC*dC*dT*l[5mC]*lT*l[5mC]) [SEQ ID NO: 249, reference compound]”, the “HER3 Liver” value (HER3 mRNA [5]; N87 xenograft mice, 25 mg/kg, q3d x 5, i.v.) is reported as 123 ± 4.5 % saline control and the “HER3 Tumor” value (HER3 mRNA [6]) is reported as 99.0 ± 8.9 % saline control.
For “GSASCSaStScSaScStScStSgSgSTSGST (lG*lA*l[5mC]*dA*dT*dC*dA*dC*dT*dC*dT*dG*dG*lT*lG*lT; antisense) [SEQ ID NO: 196]”, the “HER3: percentage down-regulation of mRNA relative to mock transfected cells” value (human HER3 mRNA [7]) was 77.0%*.
